According to patent US20200376068A1, “PROTECTION OF NORMAL TISSUE IN CANCER TREATMENT” (THOMAS JEFFERSON UNIVERSITY, priority 2017, published 2020):
Bridge positions count the residues as written; N and C are the ends. Ends that are not written are not given here. Peptide text beside a SMILES is read from it.

Key:
p53-Mdm2 interaction = test: Immunoprecipitation of p53-Mdm2 in irradiated HCT116 cells; type: cell-based, human; conditions: 5 Gy radiation, IP and Western Blot
Description: McCoy's 5A and Dulbecco's Modified Eagle Medium (DMEM) containing 10% fetal bovine serum and other reagents for cell culture were obtained from Life Technologies (Rockville, Md.). 8-Bromoguanosine 3′, 5′-cyclic monophosphate (8-Br-cGMP), a cell-permeant analog of cGMP, was obtained from Sigma (St. Louis, Mo.) and 500 μM was used in all experiments (18,20,25,26,34).
Mouse IgG (5 μg, cat. #10400C, Invitrogen) and rabbit IgG (5 μg, cat. #10400C, Invitrogen) were isotype controls for immunoprecipitation.

Grp78 (BiP) = test: Crypt ER stress, Grp78 (BiP) expression; type: in vivo, mouse; conditions: Gucy2c−/− mice
Description: (§1) Gucyc^−/− (Glucy2^ctm1Gar[63]), Lgr5-EGFP-CreERT2 (B6.129P2-Lgr5^tm1(cre/ERT2)Cle/J; Jax, Bar Harbor, Me., #008875) and Rosa-STOP^fl-LacZ (B6.129S4-Gt(ROSA)26Sor^tm1Sor/J; Jax #003474) transgenic mouse lines were interbred to generate offspring with the desired alleles. All mice were co-housed and Gucy2c^+/+ (wild type) littermates with the appropriate alleles were used as controls. Tissues were harvested from adult mice (12-16 wk of age). Cre was induced with a single 200 μL dose of tamoxifen (Sigma; Billerica, Mass.; T5648) in sunflower oil at 10 mg/ml. Tauroursodeoxycholic Acid (TUDCA, Millipore 580549) treatments were administered daily for 3 d at 100 mg/kg/day intraperitoneally. Mice were exposed to a single 10 Gy dose of whole-body γ-irradiation with a PanTak, 310 kVe x-ray machine and tissues were harvested at noted time points after irradiation. In some experiments, mice were gavaged daily for 7 d with 100 μL of 20 mM 8-cpt-cGMP. Each point in a graph (n) represents one mouse unless otherwise noted. All animal protocols were approved by the Thomas Jefferson University Institutional
Intestines were harvested from mice, fixed in formalin, and embedded in paraffin as previously described. […] At least 4 intestinal circumference sections were evaluated per mouse.

HCT116 p53-null cells [1] = test: Anaphase bridge index and aneuploidy after 5 Gy; type: cell-based, human; conditions: pretreatment 500 μM
Description: (§2) Cells preconditioned with 8-Br-cGMP, or control cells, were irradiated (5 Gy), then seeded on coverslips in 24-well plates (5×10^4 cells per well). ABI and aneuploidy were quantified 2 d after irradiation.
(§3) ABI: Cells were fixed in 4% PFA and stained with DAPI. Anaphase cells were analyzed and abnormal anaphase cells were calculated under a fluorescence microscope. More than 200 anaphase cells were analyzed in each treatment group in each independent experiment. Any abnormal anaphase cells with anaphase bridges or anaphase lag showing extended chromosome bridging between two spindle poles were enumerated and the ABI was calculated as percentage of abnormal anaphase cells over total anaphase cells.
(§4) Aneuploidy: Cells were fixed in 4% PFA and stained with DAPI, and immunofluorescence stains were performed using α/β-tubulin-specific antibodies and […] γ-tubulin antibodies, detected with Alexa Fluor® 555 or Alexa Fluor® 488 labeled secondary antibodies from Invitrogen. […] Abnormal anaphase chromatids were counted if cells contained more than two centrosomes or two centrosomes located in the same direction to the spindle midzone separated from kinetochores at the poles.

[2] = test system: HCT116 human colon carcinoma cells (parental); test: Anaphase bridge index and aneuploidy after 5 Gy; type: cell-based; conditions: pretreatment 500 μM
Description: as §2, §3, §4

p53 = test: Immunoblot of total and phosphorylated p53 in irradiated HCT116 cells; type: cell-based, human; conditions: 5 Gy radiation, 500 μM
HCT116 cells (parental) = test: Colony formation assay after irradiation; type: cell-based, human; conditions: parental HCT116, 0-4 Gy, 500 μM for 7 d before and after irradiation, vs PBS
Description: (§5) HCT116 and HCT116 p53-null cells were plated in 6-well dishes at 1×10^4 cells/well followed by treatment for 7 d with vehicle or cell permeable cGMP (8-Br-cGMP, 500 μM). Media containing different treatments were changed every other day. After exposure to radiation (0-4 Gy) cells were trypsinized and plated in 6-well dishes at different densities depending on the potency of the treatments (10^4 cells/well for HCT116 exposed at 0, 1 and 2 Gy; 4×10^4 cells/well for HCT116 p53-null exposed at 0, 1 and 2 Gy; 50×10^4 cells/well for HCT116 exposed at 3 and 4 Gy; 200×10^4 cells/well for HCT116 p53-null exposed at 3 and 4 Gy). […] The number of colonies, defined as >50 cells/colony were counted, and the surviving fraction was calculated as the ratio of the number of colonies in the treated sample to the number of colonies produced by cells that were not irradiated. […]
(§6) Statistical significance was determined by unpaired two-tailed Student's t test unless otherwise indicated. […] Survival and disease-free survival were analyzed by Kaplan-Meier analysis. Body weight was analyzed using a frailty model combining a segmented linear longitudinal model of body weight, a log-normal model for survival time, and a log-normal model for random break point for body weight (inflection point). […] Colony formation was analyzed by a pairwise comparison in four treatments with isotherm slopes by linear regression.

HCT116 p53-null cells [3] = test: Colony formation assay after irradiation; type: cell-based, human; conditions: 0-4 Gy, 500 μM, vs PBS
Description: as §5, §6

[4] = test system: intestinal stem cells (ISCs); test: Quantification of crypt Lgr5+GFP+ and Bmi1+ stem cells in Gucy2c−/− mice; type: in vivo, mouse
Description: as §1
Intestines were harvested from mice, fixed in formalin, and embedded in paraffin as previously described. Sections (4 μM) were cut then rehydrated in a sequential ethanol-to-water bath and stained with hematoxylin and eosin or antigen-specific primary and secondary antibodies. Primary antibodies for immunofluorescence included: anti-GFP, anti-Bmi1, and anti-GRP78 (Abcam; Cambridge, M A); anti-phospho VASP Ser239 (Sigma; Billerica, Mass.); and anti-GUCY2C (prepared and validated in-house). Secondary antibodies were from Life Technologies (Waltham, Mass.) and specific to the primary hosts. Tyramide signal amplification was used to detect GUCY2C; secondary antibodies conjugated to horseradish peroxidase were from Jackson immunoresearch Laboratories (cat #115-035-206 and #111-036-046, 1:1000 dilution), and fluorescein-conjugated tyramine was prepared from tyramine HCl (cat #T2879, Sigma) and NHS-fluorescein (cat #46410, Thermo Scientific) as described. For visualization of Rosa-LacZ lineage tracing, tamoxifen-induced recombinant Cre intestines were prepared as described previously. At least 4 intestinal circumference sections were evaluated per mouse.

[5] = test system: patients with irritable bowel syndrome; conditions: oral; cited from earlier work
intestinal crypts = test: Ex vivo enteroid formation from crypts; type: cell-based, mouse; conditions: crypts of Gucy2c+/+ mice, oral linaclotide
Description: Crypt isolation for subsequent analyses (enteroid assay, florescence-activated cell sorting (FACS), immunoblot) was performed using a variation of the chelation dissociation method. Briefly, intestines were harvested, villi were gently scraped off for the small intestine, and tissues were minced and incubated in a 10 mM EDTA/Ca-free, Mg-free Hank's Balanced Salt Solution (HBSS) on ice for a total of 40 min, Throughout this time, solutions were intermittently shaken by hand at the speed of two shakes/second, supernatant was disposed a total of six times, and fresh EDTA/HBSS was added after each disposal. Tissue was incubated undisturbed for 30 min on ice followed by vigorous pipetting with a 10 mL pipet to dissociate the remaining crypts. Crypts were filtered through a […] strainer and pelleted. For enteroid culture, the same number of crypts for each genotype (ranging from 300-1500 crypts/well) were resuspended in a matrigel droplet (BD, 354230), pipetted briefly with a 1000 μL micropipette, plated in 30 μL, and overlaid with 350 μL of intesticult media (Stem Cell Technologies, Vancouver. Canada: 06005). For FACS, crypts were incubated in 0.25% trypsin (Thermo Scientific, Philadelphia, Pa.; 15050065) at 37° C. until a single cell suspension was obtained (not more than 10 min). Cells were then filtered a second time using a 40 μM strainer and kept in EDTA solution for sorting.

[6] = cited from earlier work
[7] = molecular target: guanylate cyclase (ST receptors) (Homo sapiens, UniProt P25092); conditions: relative to native ST; cited from earlier work
Chain of guanylate cyclase (ST receptors) (P25092 24-1073): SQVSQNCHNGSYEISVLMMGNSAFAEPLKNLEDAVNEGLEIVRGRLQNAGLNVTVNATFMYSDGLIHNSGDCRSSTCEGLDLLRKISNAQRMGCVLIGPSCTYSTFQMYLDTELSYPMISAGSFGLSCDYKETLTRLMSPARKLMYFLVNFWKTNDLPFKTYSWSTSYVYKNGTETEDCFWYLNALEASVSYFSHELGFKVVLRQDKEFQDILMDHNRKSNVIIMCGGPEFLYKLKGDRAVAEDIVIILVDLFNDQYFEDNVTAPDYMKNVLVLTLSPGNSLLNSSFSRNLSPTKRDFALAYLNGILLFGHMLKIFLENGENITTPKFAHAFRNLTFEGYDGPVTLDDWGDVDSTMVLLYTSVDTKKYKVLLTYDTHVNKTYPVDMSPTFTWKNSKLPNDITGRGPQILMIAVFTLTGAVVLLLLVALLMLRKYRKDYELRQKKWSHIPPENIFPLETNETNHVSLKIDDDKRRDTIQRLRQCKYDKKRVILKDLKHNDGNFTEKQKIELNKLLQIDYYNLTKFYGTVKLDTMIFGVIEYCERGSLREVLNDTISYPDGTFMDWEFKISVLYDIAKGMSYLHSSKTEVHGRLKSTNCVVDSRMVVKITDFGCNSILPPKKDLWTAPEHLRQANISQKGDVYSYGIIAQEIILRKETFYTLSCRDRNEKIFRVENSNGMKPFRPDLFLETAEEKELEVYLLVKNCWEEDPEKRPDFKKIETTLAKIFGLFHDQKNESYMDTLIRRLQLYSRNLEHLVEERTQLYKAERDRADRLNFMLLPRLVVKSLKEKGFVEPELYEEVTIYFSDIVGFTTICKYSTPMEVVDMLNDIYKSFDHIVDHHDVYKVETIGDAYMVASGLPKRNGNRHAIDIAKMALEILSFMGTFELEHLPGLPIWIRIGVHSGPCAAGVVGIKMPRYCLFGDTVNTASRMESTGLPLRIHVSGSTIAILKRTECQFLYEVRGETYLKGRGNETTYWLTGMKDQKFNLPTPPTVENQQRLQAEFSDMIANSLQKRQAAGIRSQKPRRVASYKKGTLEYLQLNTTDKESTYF

[8] = test system: irradiated intestinal tissue; conditions: mice lacking genes encoding GCC or uroguanylin; cited from earlier work

Question: With `Nc1nc2c(nc(Br)n2[C@@H]2O[C@@H]3COP(=O)(O)O[C@H]3[C@H]2O)c(=O)[nH]1` [8-Br-cGMP, 8-Bromoguanosine 3′, 5′-cyclic monophosphate] as the compound, how does the p53-Mdm2 interaction (p53-Mdm2 interaction) read?
Answer: disrupting

Question: What about the p53 activation (p53-Mdm2 interaction) of the same compound?
Answer: increased

Question: What about the “BiP (Grp78) expression in crypts” value (Grp78 (BiP)) of the same compound?
Answer: mimicked

Question: And the “chromosomal instability quantified by anaphase bridge index” value (HCT116 p53-null cells [1])?
Answer: insensitive

Question: What about the “chromosomal instability quantified by centrosome counts (aneuploidy)” value (HCT116 p53-null cells [1]) of the same compound?
Answer: insensitive

Question: And the “chromosomal instability quantified by anaphase bridge index” value [2]?
Answer: reduced

Question: And the “chromosomal instability quantified by centrosome counts (aneuploidy)” value [2]?
Answer: reduced

Question: And the “phosphorylated p53” value (p53)?
Answer: increased

Question: And the “total p53” value (p53)?
Answer: increased

Question: What about the “cytogenetic toxicity induced by increasing doses of radiation, quantified by colony formation” value (HCT116 cells (parental)) of the same compound?
Answer: reduced

Question: What about the “cytogenetic toxicity induced by increasing doses of radiation, quantified by colony formation” value (HCT116 p53-null cells [3]) of the same compound?
Answer: not significant

Question: What about the “Bmi1+ cells in crypts” value [4] of the same compound?
Answer: comparable to those in Gucy2c^+/+ mice

Question: And the “Lgr5+GFP+ cells in crypts” value [4]?
Answer: comparable to those in Gucy2c^+/+ mice

Question: Which “BiP (Grp78) expression in crypts” value (Grp78 (BiP)) does the source give for `C[C@H](CCC(=O)NCCS(=O)(=O)O)[C@H]1CC[C@H]2[C@@H]3[C@@H](O)C[C@@H]4C[C@H](O)CC[C@]4(C)[C@H]3CC[C@]12C` [TUDCA, tauroursodeoxycholic acid] here?
Answer: restored normal BiP expression

Question: What about the “Bmi1+ cells in crypts” value [4] of the same compound?
Answer: restored

Question: What about the “Lgr5+GFP+ cells in crypts” value [4] of the same compound?
Answer: restored

Question: For `C[C@@H]1NC(=O)[C@@H]2CCCN2C(=O)[C@H](CC(N)=O)NC(=O)[C@@H]2CSSC[C@H](N)C(=O)N[C@H]3CSSC[C@H](NC1=O)C(=O)N[C@@H]([C@@H](C)O)C(=O)NCC(=O)N[C@H](C(=O)N[C@@H](Cc1ccc(O)cc1)C(=O)O)CSSC[C@H](NC(=O)[C@H](Cc1ccc(O)cc1)NC(=O)[C@H](CCC(=O)O)NC3=O)C(=O)N2` [linaclotide] (H-CCEYCCNPACTGCY-OH; disulfide 1-6, 2-10, 5-13), which abdominal pain [5] is on record?
Answer: relieve

Question: And the constipation [5]?
Answer: improve

Question: And the “efficiency of enteroid formation” value (intestinal crypts)?
Answer: amplified

Question: And the “oral bioavailability or bioactivity outside the GI tract” value [6]?
Answer: negligible

Question: Which abdominal pain [5] does the source give for `CC(C)C[C@H](NC(=O)[C@@H]1CSSC[C@@H]2NC(=O)[C@H](CC(C)C)NC(=O)[C@H](CCC(=O)O)NC(=O)[C@@H](NC(=O)[C@H](CCC(=O)O)NC(=O)[C@H](CC(=O)O)NC(=O)[C@@H](N)CC(N)=O)CSSC[C@H](NC(=O)[C@H](C)NC(=O)[C@H](C(C)C)NC(=O)[C@H](CC(N)=O)NC(=O)[C@H](C(C)C)NC2=O)C(=O)N[C@@H]([C@@H](C)O)C(=O)NCC(=O)N1)C(=O)O` [plecanatide] (H-NDECELCVNVACTGCL-OH; disulfide 4-12, 7-15) here?
Answer: relieve

Question: And the constipation [5]?
Answer: improve

Question: And the “oral bioavailability or bioactivity outside the GI tract” value [6]?
Answer: negligible

Question: For “Guanylin: 15 amino acid peptide from mammalian intestine, about 50% sequence homology to ST; endogenous GCC agonist (PGTCEICAYAACTGC; ends and bridges not checked; cysteine pairing not given here; UniProt Q02747 101-115, looked up)”, which “activates guanylate cyclase at a level less than native ST” value [7] is on record?
Answer: 10- to 100 fold

Question: Which “level of apoptosis in irradiated intestinal tissue” value [8] does the source give for cGMP here?
Answer: ameliorated
